Experimental data from PMC7645366 (EMBO Molecular Medicine, 2020).
Values joined by “and” are separate entries in the source; they are usually repeats but may differ in a detail not shown here. Identical values can stand only once. Like-named read-outs stand apart in the source and are kept apart here.

How the values were obtained:
LLO [1] = molecular target: T1, LLO (Listeria monocytogenes serovar 1/2a, UniProt P13128); test: LDH cytotoxicity assay, THP-1 macrophages, LLO; format: cell-based; settings: THP-1, LLO 0.5 μg/ml, 100 μM, 18 h
T1 sequence (P13128 25-529): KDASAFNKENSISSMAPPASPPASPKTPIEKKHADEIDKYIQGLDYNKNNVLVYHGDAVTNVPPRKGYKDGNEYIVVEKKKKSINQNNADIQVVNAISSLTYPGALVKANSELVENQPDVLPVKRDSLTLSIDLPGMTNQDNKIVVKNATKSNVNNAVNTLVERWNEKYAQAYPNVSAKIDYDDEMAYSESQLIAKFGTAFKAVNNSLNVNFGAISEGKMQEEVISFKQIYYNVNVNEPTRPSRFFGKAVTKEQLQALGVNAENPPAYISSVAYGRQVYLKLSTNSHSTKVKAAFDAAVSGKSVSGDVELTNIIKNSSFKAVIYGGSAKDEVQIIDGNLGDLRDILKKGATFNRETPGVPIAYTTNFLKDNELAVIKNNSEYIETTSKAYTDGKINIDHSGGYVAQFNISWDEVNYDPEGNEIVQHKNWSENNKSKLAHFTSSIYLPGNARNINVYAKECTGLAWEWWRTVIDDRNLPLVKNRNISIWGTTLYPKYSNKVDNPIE
Method: (§1) Human monocytic leukemia THP‐1 cells (ATCC TIB‐202) were cultivated in R10 medium and maintained at density of 10^6 cells/ml. For differentiation into macrophages, THP‐1 cells were treated for 48 h with 20 ng/ml of phorbol myristate acetate (Sigma).
Cytotoxicity was determined by measuring the activity of lactate dehydrogenase enzyme released into the culture supernatant using the Cytotoxicity Detection kit (Roche) according to the manufacturer's instructions. The percentage cytotoxicity was calculated by ratio to 100% lysis control (0.1% saponin).

PLY [2] = molecular target: T2, PLY (Streptococcus pneumoniae serotype 4, UniProt P0C2J9); settings: 18 h
T2 sequence (P0C2J9 whole entry, looked up): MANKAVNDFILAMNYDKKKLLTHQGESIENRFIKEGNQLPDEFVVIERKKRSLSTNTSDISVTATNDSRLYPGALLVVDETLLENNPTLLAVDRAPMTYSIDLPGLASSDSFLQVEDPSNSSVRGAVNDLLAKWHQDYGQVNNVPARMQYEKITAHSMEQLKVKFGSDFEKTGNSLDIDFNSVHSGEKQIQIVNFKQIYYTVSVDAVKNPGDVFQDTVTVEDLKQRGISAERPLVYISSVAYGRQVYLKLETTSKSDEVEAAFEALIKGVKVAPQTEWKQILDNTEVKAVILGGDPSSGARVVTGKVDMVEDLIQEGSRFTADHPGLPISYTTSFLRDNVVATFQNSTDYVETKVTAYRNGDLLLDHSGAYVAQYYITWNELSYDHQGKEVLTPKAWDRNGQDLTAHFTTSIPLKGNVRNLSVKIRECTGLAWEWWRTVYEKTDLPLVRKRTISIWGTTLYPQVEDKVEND

LLO [3] = molecular target: T1, LLO; test: Cytokine ELISA, THP-1 macrophages stimulated with LLO; format: cell-based; settings: LLO 0.5 μg/ml, 100uM, 18 h
Method: as §1

SLO = SLO (Streptococcus pyogenes serotype M1, UniProt P0C0I3); format: cell-based; settings: 100uM; 18 h
SLO, sequence (P0C0I3 34-571 limits assumed): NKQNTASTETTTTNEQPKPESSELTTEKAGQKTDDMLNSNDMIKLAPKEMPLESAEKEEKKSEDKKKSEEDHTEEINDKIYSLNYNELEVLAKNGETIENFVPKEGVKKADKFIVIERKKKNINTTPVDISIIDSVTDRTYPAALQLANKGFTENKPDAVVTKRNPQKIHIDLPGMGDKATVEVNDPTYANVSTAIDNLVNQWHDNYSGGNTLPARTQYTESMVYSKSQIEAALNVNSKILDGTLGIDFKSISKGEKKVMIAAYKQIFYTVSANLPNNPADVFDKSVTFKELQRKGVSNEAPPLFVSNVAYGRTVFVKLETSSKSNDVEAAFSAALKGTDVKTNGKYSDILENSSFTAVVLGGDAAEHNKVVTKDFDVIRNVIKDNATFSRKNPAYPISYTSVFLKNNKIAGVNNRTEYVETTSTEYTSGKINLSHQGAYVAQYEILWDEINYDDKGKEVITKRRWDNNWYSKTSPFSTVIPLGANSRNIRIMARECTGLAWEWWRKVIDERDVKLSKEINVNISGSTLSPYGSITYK

PLY [4] = molecular target: T2, PLY; format: cell-based; settings: 100uM; 18 h
PLY [5] = molecular target: T2, PLY; format: cell-based

## CC(C)CCC[C@@H](C)[C@H]1CC[C@H]2[C@@H]3CC=C4C[C@@H](O)CC[C@]4(C)[C@H]3CC[C@]12C [CHO, Cholesterol, reference compound]
LLO [1]; experiment 1 of 4
  % cytotoxicity relative to positive control (lysis buffer), LDH: 42.88%
LLO [1]; experiment 2 of 4
  % cytotoxicity relative to positive control (lysis buffer), LDH: 43.52%
LLO [1]; experiment 3 of 4
  % cytotoxicity relative to positive control (lysis buffer), LDH: 31.62%
LLO [1]; experiment 4 of 4
  % cytotoxicity relative to positive control (lysis buffer), LDH: 53.89%
PLY [2]; 100 μM
  % cytotoxicity relative to positive control (lysis buffer), LDH: 27.36% and 42.05% and 42.16%
PLY [2]
  % cytotoxicity relative to positive control (lysis buffer), LDH: 35.29%
LLO [3]; experiment 1 of 3
  IL-8 levels in THP-1 macrophages: 112.8 pg/mL
LLO [3]; experiment 2 of 3
  IL-8 levels in THP-1 macrophages: 87.2 pg/mL
LLO [3]; experiment 3 of 3
  IL-8 levels in THP-1 macrophages: 126.9 pg/mL
SLO
  IL-8 levels in THP-1 macrophages: 79.6 pg/mL and 72.8 pg/mL and 144.9 pg/mL
PLY [4]
  IL-8 levels in THP-1 macrophages: 104 pg/mL and 72.9 pg/mL and 80.5 pg/mL
PLY [5]
  cytolysis by PLY in live imaging: protection from PLY induced cytolysis

## Bovine serum albumin [BSA]
PLY [5]
  cytolysis by PLY in live imaging: cytolysis
